# Measured values taken from patent US20170049716A1, “NITISINONE DOSING REGIMENS FOR THE TREATMENT OF ALKAPTONURIA” (Swedish Orphan Biovitrum International AB, priority 2014, published 2017).
# Tests used:
# patients with HT-1 = details: cited from earlier work
# homogentisic acid (HGA) [1] = details: 2 mg/day, 36 months, AKU patients; cited from earlier work
# patients with AKU = details: 2 mg/day, 36 months; cited from earlier work
# tyrosine = details: 2 mg daily, 20 patients, no diet restrictions, 3-year study; cited from earlier work
# homogentisic acid (HGA) [2] = test: Serum HGA (s-HGA) 24-hour profile, dose-response study in patients with AKU; type: in vivo, human; details: for Patients with no quantifiable serum HGA concentration in any sample over the 24-hour dosage interval: group of 8 patients, LLOQ 3.1 μmol/L
# Method: A randomized, open-label, parallel-group dose-response study with a no-treatment control group was performed. Patients with AKU were randomized to receive either 1 mg, 2 mg, 4 mg or 8 mg nitisinone once daily (oral administration) or no treatment (control). Forty patients were randomized, equally distributed amongst the five groups (8 patients per group). Nitisinone was administered as an oral suspension containing 4 mg/mL. The following dose volumes were administered once daily, in the morning: Measurements of serum HGA (s-HGA) and tyrosine (s-Tyr) concentrations were performed at weeks 0, 2 and 4. At all visits a full 24-hour profile was determined at the following time-points: pre-dose (immediately after breakfast) and 0.5, 1,2, 3, 4, 6, 8, 10, 12, 15, 18,24 hours post-dose. The concentrations of HGA and tyrosine in the serum were measured by liquid chromatography tandem mass spectrometry (LCMSMS). The lower limit of quantification (LLOQ) for HGA was 3.1 μmol/L. Maximum and daily average serum concentrations of HGA and tyrosine were determined. The daily average concentrations were determined by dividing the area under the concentration vs. time curves, calculated by means of the trapezoidal rule, by 24.
# homogentisic acid (HGA) [3] = test: Urinary excretion of HGA over 24 hours (u-HGA24), dose-response study in patients with AKU; type: in vivo, human; details: for Relative decrease in u-HGA24, max / Relative decrease in u-HGA24, mean / Relative decrease in u-HGA24, median / Relative decrease in u-HGA24, min: baseline to week 4, N = 8
# Method: A randomized, open-label, parallel-group dose-response study with a no-treatment control group was performed. Patients with AKU were randomized to receive either 1 mg, 2 mg, 4 mg or 8 mg nitisinone once daily (oral administration) or no treatment (control). Forty patients were randomized, equally distributed amongst the five groups (8 patients per group). Nitisinone was administered as an oral suspension containing 4 mg/mL. The following dose volumes were administered once daily, in the morning: Urinary excretion of HGA over a 24-hour period (u-HGA24) was assessed at weeks 0, 2 and 4. Urine was collected into 2.5-L bottles containing 30 mL of 5N H2SO4. The exact length of the collection interval and the volume of the collected urine were recorded. The concentration of HGA in the urine was measured by liquid chromatography tandem mass spectrometry (LCMSMS). The 24-hour excretion of HGA was calculated by multiplying the concentration with the volume of the collected urine, and correcting for any deviation from a 24-hour collection period. (There were no reports of missed samples within the collection interval.)
# [4] = 1 mg once daily oral, Week 0 (baseline), N = 8
# [5] = 1 mg once daily oral, Week 4, N = 8
# [6] = 2 mg once daily oral, Week 0 (baseline), N = 8
# [7] = 2 mg once daily oral, Week 4, N = 8
# [8] = 4 mg once daily oral, Week 0 (baseline), N = 8
# [9] = 4 mg once daily oral, Week 4, N = 8
# [10] = 8 mg once daily oral, Week 0 (baseline), N = 8
# [11] = 8 mg once daily oral, Week 4, N = 8
smiles,measurement,setting,value
"O=C1CCCC(=O)C1C(=O)c1ccc(C(F)(F)F)cc1[N+](=O)[O-] [nitisinone, 2-[2-nitro-4-(trifluoromethyl)benzoyl]-1,3-cyclohexanedione]",IQ of treated children versus unaffected siblings,patients with HT-1; children treated with nitisinone (Bendadi et al.),considerably lower
same,"Cognitive impairment causing schooling difficulties, patients affected",patients with HT-1; school-age patients with HT-1 treated with nitisinone (Masurel-Paulet et al.),eight out of 23
same,"Reduction of urinary excretion on average, compared to pre-treatment levels",homogentisic acid (HGA) [1],about 95%
same,"Effect on primary efficacy variable, hip rotation",patients with AKU,failed to show an effect
same,"Tyrosine levels, average",tyrosine,800 µM
same,"Tyrosine levels, range",tyrosine,332 to 1528 µM
same,"Daily average serum concentration of HGA, max",homogentisic acid (HGA) [2]; [4],44.1 µmol/L
same,"Daily average serum concentration of HGA, mean",homogentisic acid (HGA) [2]; [4],34.2 µmol/L
same,"Daily average serum concentration of HGA, median",homogentisic acid (HGA) [2]; [4],33.0 µmol/L
same,"Daily average serum concentration of HGA, min",homogentisic acid (HGA) [2]; [4],25.5 µmol/L
same,"Daily average serum concentration of HGA, max",homogentisic acid (HGA) [2]; [5],7.3 µmol/L
same,"Daily average serum concentration of HGA, mean",homogentisic acid (HGA) [2]; [5],4.1 µmol/L
same,"Daily average serum concentration of HGA, median",homogentisic acid (HGA) [2]; [5],3.9 µmol/L
same,"Daily average serum concentration of HGA, min",homogentisic acid (HGA) [2]; [5],3.1 µmol/L
same,"Daily average serum concentration of HGA, max",homogentisic acid (HGA) [2]; [6],59.1 µmol/L
same,"Daily average serum concentration of HGA, mean",homogentisic acid (HGA) [2]; [6],36.6 µmol/L
same,"Daily average serum concentration of HGA, median",homogentisic acid (HGA) [2]; [6],34.2 µmol/L
same,"Daily average serum concentration of HGA, min",homogentisic acid (HGA) [2]; [6],25.1 µmol/L
same,"Daily average serum concentration of HGA, max",homogentisic acid (HGA) [2]; [7],5.8 µmol/L
same,"Daily average serum concentration of HGA, median",homogentisic acid (HGA) [2]; [7],<3.1 µmol/L
same,"Daily average serum concentration of HGA, min",homogentisic acid (HGA) [2]; [7],<3.1 µmol/L
same,Patients with no quantifiable serum HGA concentration in any sample over the 24-hour dosage interval,homogentisic acid (HGA) [2]; 2 mg,3
same,"Daily average serum concentration of HGA, max",homogentisic acid (HGA) [2]; [8],49.9 µmol/L
same,"Daily average serum concentration of HGA, mean",homogentisic acid (HGA) [2]; [8],38.5 µmol/L
same,"Daily average serum concentration of HGA, median",homogentisic acid (HGA) [2]; [8],37.7 µmol/L
same,"Daily average serum concentration of HGA, min",homogentisic acid (HGA) [2]; [8],28.9 µmol/L
same,"Daily average serum concentration of HGA, max",homogentisic acid (HGA) [2]; [9],<3.1 µmol/L
same,"Daily average serum concentration of HGA, median",homogentisic acid (HGA) [2]; [9],<3.1 µmol/L
same,"Daily average serum concentration of HGA, min",homogentisic acid (HGA) [2]; [9],<3.1 µmol/L
same,Patients with no quantifiable serum HGA concentration in any sample over the 24-hour dosage interval,homogentisic acid (HGA) [2]; 4 mg,4
same,"Daily average serum concentration of HGA, max",homogentisic acid (HGA) [2]; [10],47.7 µmol/L
same,"Daily average serum concentration of HGA, mean",homogentisic acid (HGA) [2]; [10],36.6 µmol/L
same,"Daily average serum concentration of HGA, median",homogentisic acid (HGA) [2]; [10],38.6 µmol/L
same,"Daily average serum concentration of HGA, min",homogentisic acid (HGA) [2]; [10],25.2 µmol/L
same,"Daily average serum concentration of HGA, median",homogentisic acid (HGA) [2]; [11],<3.1 µmol/L
same,"Daily average serum concentration of HGA, min",homogentisic acid (HGA) [2]; [11],<3.1 µmol/L
same,Patients with no quantifiable serum HGA concentration in any sample over the 24-hour dosage interval,homogentisic acid (HGA) [2]; 8 mg,7
same,"u-HGA24, max",homogentisic acid (HGA) [3]; [4],69502.9 μmol/24h
same,"u-HGA24, mean",homogentisic acid (HGA) [3]; [4],36757.0 μmol/24h
same,"u-HGA24, median",homogentisic acid (HGA) [3]; [4],34034.4 μmol/24h
same,"u-HGA24, min",homogentisic acid (HGA) [3]; [4],20743.4 μmol/24h
same,"u-HGA24, max",homogentisic acid (HGA) [3]; [5],6752.8 μmol/24h
same,"u-HGA24, mean",homogentisic acid (HGA) [3]; [5],3931.0 μmol/24h
same,"u-HGA24, median",homogentisic acid (HGA) [3]; [5],3415.6 μmol/24h
same,"u-HGA24, min",homogentisic acid (HGA) [3]; [5],1847.6 μmol/24h
same,"Relative decrease in u-HGA24, max",homogentisic acid (HGA) [3]; 1 mg once daily oral,91.05%
same,"Relative decrease in u-HGA24, mean",homogentisic acid (HGA) [3]; 1 mg once daily oral,88.72%
same,"Relative decrease in u-HGA24, median",homogentisic acid (HGA) [3]; 1 mg once daily oral,87.99%
same,"u-HGA24, max",homogentisic acid (HGA) [3]; [6],40747.2 μmol/24h
same,"u-HGA24, mean",homogentisic acid (HGA) [3]; [6],31439.8 μmol/24h
same,"u-HGA24, median",homogentisic acid (HGA) [3]; [6],31754.7 μmol/24h
same,"u-HGA24, min",homogentisic acid (HGA) [3]; [6],19994.2 μmol/24h
same,"u-HGA24, max",homogentisic acid (HGA) [3]; [7],3484.1 μmol/24h
same,"u-HGA24, mean",homogentisic acid (HGA) [3]; [7],1602.5 μmol/24h
same,"u-HGA24, median",homogentisic acid (HGA) [3]; [7],1515.6 μmol/24h
same,"u-HGA24, min",homogentisic acid (HGA) [3]; [7],627.0 μmol/24h
same,"Relative decrease in u-HGA24, max",homogentisic acid (HGA) [3]; 2 mg once daily oral,96.86%
same,"Relative decrease in u-HGA24, mean",homogentisic acid (HGA) [3]; 2 mg once daily oral,94.78%
same,"Relative decrease in u-HGA24, median",homogentisic acid (HGA) [3]; 2 mg once daily oral,95.64%
same,"Relative decrease in u-HGA24, min",homogentisic acid (HGA) [3]; 2 mg once daily oral,89.08%
same,u-HGA24,"homogentisic acid (HGA) [3]; 2 mg or higher per day, with one exception",less than 2000 μmol
same,"u-HGA24, max",homogentisic acid (HGA) [3]; [8],55393.9 μmol/24h
same,"u-HGA24, mean",homogentisic acid (HGA) [3]; [8],35453.4 μmol/24h
same,"u-HGA24, median",homogentisic acid (HGA) [3]; [8],31502.7 μmol/24h
same,"u-HGA24, min",homogentisic acid (HGA) [3]; [8],14442.9 μmol/24h
same,"u-HGA24, max",homogentisic acid (HGA) [3]; [9],1478.4 μmol/24h
same,"u-HGA24, mean",homogentisic acid (HGA) [3]; [9],733.8 μmol/24h
same,"u-HGA24, median",homogentisic acid (HGA) [3]; [9],790.5 μmol/24h
same,"u-HGA24, min",homogentisic acid (HGA) [3]; [9],164.2 μmol/24h
same,"Relative decrease in u-HGA24, max",homogentisic acid (HGA) [3]; 4 mg once daily oral,99.41%
same,"Relative decrease in u-HGA24, mean",homogentisic acid (HGA) [3]; 4 mg once daily oral,98.15%
same,"Relative decrease in u-HGA24, median",homogentisic acid (HGA) [3]; 4 mg once daily oral,98.19%
same,"Relative decrease in u-HGA24, min",homogentisic acid (HGA) [3]; 4 mg once daily oral,96.74%
same,"u-HGA24, max",homogentisic acid (HGA) [3]; [10],32896.6 μmol/24h
same,"u-HGA24, mean",homogentisic acid (HGA) [3]; [10],27353.5 μmol/24h
same,"u-HGA24, median",homogentisic acid (HGA) [3]; [10],28728.7 μmol/24h
same,"u-HGA24, min",homogentisic acid (HGA) [3]; [10],17075.1 μmol/24h
same,"u-HGA24, max",homogentisic acid (HGA) [3]; [11],223.0 μmol/24h
same,"u-HGA24, mean",homogentisic acid (HGA) [3]; [11],146.3 μmol/24h
same,"u-HGA24, median",homogentisic acid (HGA) [3]; [11],140.4 μmol/24h
same,"u-HGA24, min",homogentisic acid (HGA) [3]; [11],83.1 μmol/24h
same,"Relative decrease in u-HGA24, max",homogentisic acid (HGA) [3]; 8 mg once daily oral,99.70%
same,"Relative decrease in u-HGA24, mean",homogentisic acid (HGA) [3]; 8 mg once daily oral,99.41%
same,"Relative decrease in u-HGA24, median",homogentisic acid (HGA) [3]; 8 mg once daily oral,99.52%
same,"Relative decrease in u-HGA24, min",homogentisic acid (HGA) [3]; 8 mg once daily oral,98.69%
same,Decrease of urinary excretion of HGA (up to),homogentisic acid (HGA) [3]; 8 mg per day (highest dose),> 99%
same,"Suppression of the formation of HGA, estimated","homogentisic acid (HGA) [3]; 10 mg per day, estimated",almost completely
same,"Decrease of u-HGA in a majority of patients, estimated by extrapolation","homogentisic acid (HGA) [3]; 15 mg per day, extrapolation",about 99.9%
same,Suppression of the formation of HGA,homogentisic acid (HGA) [3]; considerably higher doses than previously used in alkaptonuria,more than 99%
same,u-HGA24 of one patient,"homogentisic acid (HGA) [3]; one patient on 2 mg, week 4",3484 µmol
